Patent US20240190824A1, “INHIBITORS OF TREK (TWIK RELATED K+ CHANNELS) CHANNEL FUNCTION” (ONO PHARMACEUTICAL CO., LTD., priority 2019, published 2024)

Target: human TREK-1 (Homo sapiens (Human), UniProt O95069)
Test: TREK-1 Thallium (Tl+) flux assay
Format: cell-based
Details: CHO-K1 cells stably expressing human TREK-1

Chain of human TREK-1 (O95069 whole entry): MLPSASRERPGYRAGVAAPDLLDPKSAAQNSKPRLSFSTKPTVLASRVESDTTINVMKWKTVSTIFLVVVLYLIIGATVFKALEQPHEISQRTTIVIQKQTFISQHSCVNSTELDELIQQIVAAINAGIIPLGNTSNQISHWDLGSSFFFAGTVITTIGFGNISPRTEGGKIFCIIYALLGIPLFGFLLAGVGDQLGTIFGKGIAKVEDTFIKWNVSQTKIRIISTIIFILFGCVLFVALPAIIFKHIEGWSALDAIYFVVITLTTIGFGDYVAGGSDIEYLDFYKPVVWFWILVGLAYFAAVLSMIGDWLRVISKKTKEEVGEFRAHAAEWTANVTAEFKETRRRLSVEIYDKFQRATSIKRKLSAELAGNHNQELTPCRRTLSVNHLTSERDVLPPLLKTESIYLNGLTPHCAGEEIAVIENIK

Structure (SMILES)	IC50
Cc1cc(OCc2ccccc2)cc(C)c1NC(=O)c1cc(NC(=O)OC(C)(C)C)ccc1Cl [Compound 88, tert-butyl (3-((4-(benzyloxy)-2,6-dimethylphenyl)carbamoyl)-4-chlorophenyl)carbamate]	360 nM
Cc1cc(OCc2ccccc2)ccc1NC(=O)c1ccc(N)cc1Cl [Compound 89, 4-amino-N-(4-(benzyloxy)-2-methylphenyl)-2-chlorobenzamide]	7670 nM
CC(=O)Nc1ccc(Cl)c(C(=O)Nc2ccc(OCc3ccccc3)cc2C)c1 [Compound 91]	1030 nM
Cc1cc(-c2cnn(-c3ccc(F)cc3)c2)cnc1NC(=O)c1cc(NC(=O)OC(C)(C)C)ccc1Cl [Compound 94, tert-butyl N-[4-chloro-3-[[5-[1-(4-fluorophenyl)pyrazol-4-yl]-3-methyl-2-pyridyl]carbamoyl]phenyl]carbamate]	200 nM
Cc1cc(-c2noc(-c3ccc(F)cc3)n2)cnc1NC(=O)c1cc(NC(=O)OC(C)(C)C)ccc1Cl [Compound 95, tert-butyl N-[4-chloro-3-[[5-[5-(4-fluorophenyl)-1,2,4-oxadiazol-3-yl]-3-methyl-2-pyridyl]carbamoyl]phenyl]carbamate]	230 nM
O=C(Nc1ncc(-c2ccn(-c3ccc(F)cc3)n2)cc1F)c1cc(NC(=O)C2COCCO2)ccc1Cl (centres unmarked) [Compound 98, N-[4-chloro-3-[[3-fluoro-5-[1-(4-fluorophenyl)pyrazol-3-yl]-2-pyridyl]carbamoyl]phenyl]1,4-dioxane-2-carboxamide]	560 nM

Continued, values first:

IC50	Structure (SMILES)
130 nM	CC(C)(C)OC(=O)Nc1ccc(Cl)c(C(=O)Nc2ncc(-c3cnn(-c4ccc(F)cc4)c3)cc2F)c1 [Compound 92, tert-butyl (4-chloro-3-((3-fluoro-5-(1-(4-fluorophenyl)-1H-pyrazol-4 yl)pyridin-2-yl)carbamoyl)phenyl)carbamate]
190 nM	Cc1cc(-c2cnn(-c3ccccc3)c2)cnc1NC(=O)c1cc(NC(=O)OC(C)(C)C)ccc1Cl [Compound 93, tert-butyl N-[4-chloro-3-[[3-methyl-5-(1-phenylpyrazol-4-yl)-2-pyridyl]carbamoyl]phenyl]carbamate]
230 nM	CC(C)(C)OC(=O)Nc1ccc(Cl)c(C(=O)Nc2ncc(-c3cc(-c4ccccc4)no3)cc2F)c1 [Compound 96, tert-butyl N-[4-chloro-3-[[3-fluoro-5-(3-phenylisoxazol-5-yl)-2-pyridyl]carbamoyl]phenyl]carbamate]
290 nM	CC(C)(C)OC(=O)Nc1ccc(Cl)c(C(=O)Nc2ncc(-c3cnn(-c4ccccc4)c3)cc2F)c1 [Compound 97, tert-butyl N-[4-chloro-3-[[3-fluoro-5-(1-phenylpyrazol-4-yl)-2-pyridyl]carbamoyl]phenyl]carbamate]
1830 nM	Cc1cc(-c2ccc(-c3ccccc3)s2)cnc1NC(=O)c1cc(NC(=O)OC(C)(C)C)ccc1Cl [Compound 99, tert-butyl N-[4-chloro-3-[[3-methyl-5-(5-phenyl-2-thienyl)-2-pyridyl]carbamoyl]phenyl]carbamate]
